Experimental data as given in patent US10106542B2, “Substituted 6,7-dihydropyrazolo[1,5-a]pyrazines as negative allosteric modulators of mGluR2 receptors” (Janssen Pharmaceutica NV, priority 2013, dated 2018).

How the values were obtained:
human mGlu2 receptor = biological target: T1, human mGlu2 receptor (Homo sapiens, UniProt Q14416); assay: [35S]GTPγS binding assay (mGluR2 negative allosteric modulation); type: biochemical; conditions: for IC50: membranes from CHO cells transfected with human mGlu2 receptor, glutamate 60 μM, pIC50 = −log IC50 (M), read-out: GTPγS - hmGluR2 anGT pIC50 (converted); for Emax: relative maximal effect: maximal % inhibition relative to the control glutamate response, read-out: GTPγS - hmGluR2 anGT Emax
T1 construct: expressed in transfected cells; host or cells: CHO cells (membrane preparation)
Summary of the method: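 Negative allosteric modulation read as [35S]GTPγS (0.1 nM) incorporation over 30 min at 30 °C, expressed as % of the response to an EC80-equivalent glutamate concentration. Assay used 7 μg human mGlu2 CHO membrane protein in HEPES pH 7.4 buffer with NaCl, MgCl2, GDP and saponin; bound label collected by filtration.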

T1 sequence (Q14416 19-872): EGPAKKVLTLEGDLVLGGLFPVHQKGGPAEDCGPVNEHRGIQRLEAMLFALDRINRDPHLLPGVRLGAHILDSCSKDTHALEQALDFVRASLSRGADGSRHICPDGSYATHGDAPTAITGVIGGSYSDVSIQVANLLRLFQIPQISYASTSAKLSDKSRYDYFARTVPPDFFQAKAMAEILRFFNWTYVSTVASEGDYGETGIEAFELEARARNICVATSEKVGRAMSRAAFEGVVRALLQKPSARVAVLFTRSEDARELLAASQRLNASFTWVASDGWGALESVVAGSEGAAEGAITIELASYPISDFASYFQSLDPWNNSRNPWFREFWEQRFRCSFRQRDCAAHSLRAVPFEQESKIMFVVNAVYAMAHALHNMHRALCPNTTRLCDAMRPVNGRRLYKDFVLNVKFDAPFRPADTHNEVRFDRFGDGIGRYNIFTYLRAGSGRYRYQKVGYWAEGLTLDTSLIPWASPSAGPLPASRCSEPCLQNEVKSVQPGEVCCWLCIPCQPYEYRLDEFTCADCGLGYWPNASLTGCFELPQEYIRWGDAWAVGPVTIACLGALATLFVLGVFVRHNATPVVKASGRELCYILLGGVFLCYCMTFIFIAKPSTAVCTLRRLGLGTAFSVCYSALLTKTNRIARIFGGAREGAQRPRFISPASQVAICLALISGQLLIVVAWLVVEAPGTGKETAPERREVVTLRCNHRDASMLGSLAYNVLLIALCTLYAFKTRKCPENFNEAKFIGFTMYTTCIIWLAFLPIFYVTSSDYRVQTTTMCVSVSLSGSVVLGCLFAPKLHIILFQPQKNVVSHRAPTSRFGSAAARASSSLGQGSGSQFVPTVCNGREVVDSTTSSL

IC50 (human mGlu2 receptor)	Emax (human mGlu2 receptor)	melting point	Compound
1.35e-08 M	104%	71.5 °C	Cc1cc(-c2cnn3c2C(=O)N(c2cc(Cl)cc(Cl)c2)C[C@@H]3C)ccn1 [compound 159]
5.25e-08 M	106%	173.08 °C	CC(C)Nc1cc(-c2cnn3c2C(=O)N(c2ccc(C(F)(F)F)cc2)C[C@@H]3C)ccn1 [compound 266]
2.57e-07 M	104%	78.6 °C	Cc1cc(-c2cnn3c2C(=O)N(c2ccc(Cl)cc2F)C[C@@H]3C)ccn1 [compound 30]
1.02e-08 M	102%	179.2 °C	CCOc1nc(N2C[C@H](C)n3ncc(-c4cc(C)nc(C)c4)c3C2=O)ccc1C(F)(F)F [compound 205]
1.62e-08 M	104%	104.2 °C	CCOc1cc(N2C[C@H](C)n3ncc(-c4ccncc4)c3C2=O)ccc1C(F)(F)F [compound 55]
4.07e-07 M	109%	> 300 °C	C[C@H]1CN(c2ccc(C(F)(F)F)cc2)C(=O)c2c(-c3ccnc(N4CC(O)C4)c3)cnn21 [compound 101]
9.55e-09 M	103%	146.8 °C	C[C@H]1CN(c2ccc(C(F)(F)F)c(Cl)c2)C(=O)c2c(-c3ccncc3)cnn21 [compound 50]
8.71e-09 M	104%	158.9 °C	Cc1cc(-c2cnn3c2C(=O)N(c2ccc(C(F)(F)F)c(C)c2)C[C@@H]3C)cc(C)n1 [compound 157]
1.66e-08 M	105%	166.8 °C	COc1cc(-c2cnn3c2C(=O)N(c2ccc(Cl)c(Cl)c2)C[C@@H]3C)cc(C)n1 [compound 146]
3.31e-08 M	105%	141.7 °C	Cc1cc(-c2cnn3c2C(=O)N(c2ccc(Cl)c(F)c2)C[C@@H]3C)ccn1 [compound 62]
6.76e-09 M	109%	107.87 °C (dec.)	COc1cc(-c2cnn3c2C(=O)N(c2ccc(C(F)(F)F)c(OC)n2)C[C@@H]3C)ccn1 [compound 240]
1.86e-08 M	107%	149.8 °C	C[C@H]1CN(c2ccc(Cl)c(Cl)c2)C(=O)c2c(-c3ccnc(C#N)c3)cnn21 [compound 109]
4.68e-07 M	103%	> 300 °C	COc1ccc(-c2cnn3c2C(=O)N(c2ccc(C(F)(F)F)cc2)C[C@@H]3C)cn1 [compound 150]
1.86e-08 M	105%	57.5 °C	COc1cc(-c2cnn3c2C(=O)N(c2ccc(C(F)(F)F)cc2)C[C@@H]3C)cc(C)n1 [compound 145]
2.63e-08 M	103%	273.9 °C	COc1cc(N2C[C@H](C)n3ncc(-c4ccncc4)c3C2=O)ccc1C(F)(F)F [compound 64]
6.92e-07 M	100%	135.1 °C	CC[C@@H]1CN(c2ccc(C(F)(F)F)cc2)C(=O)c2c(-c3ccnc(C)c3)cnn21 [compound 129]
9.55e-07 M	101%	133 °C	COc1cc(F)cc(N2C[C@H](C)n3ncc(-c4ccnc(C)c4)c3C2=O)c1 [compound 85]

IC50 (human mGlu2 receptor)	Emax (human mGlu2 receptor)	melting point	Compound
3.55e-08 M	103%	154.9 °C	C[C@H]1CN(c2ccc(C(F)(F)F)cc2)C(=O)c2c(-c3ccnc(CF)c3)cnn21 [compound 112]
1.23e-07 M	108%	128.1 °C	C[C@H]1CN(c2ccc(C(F)(F)F)cc2)C(=O)c2c(-c3ccnc(N4CCOCC4)c3)cnn21 [compound 108]
1.38e-07 M	104%	137.1 °C	Cc1cc(-c2cnn3c2C(=O)N(c2ccc(OC(F)F)cc2)C[C@@H]3C)ccn1 [compound 27]
1.07e-06 M	109%	60.7 °C	CCOc1ccc(N2C[C@H](C)n3ncc(-c4ccnc(C)c4)c3C2=O)nc1F [compound 191]
6.31e-06 M	85%	> 300 °C	C[C@H]1CN(c2ccc(C(F)(F)F)cc2)C(=O)c2c(-c3ccc(N4CCNCC4)nc3)cnn21 [compound 176, (7S)-7-Methyl-3-(6-piperazin-1-yl-3-pyridyl)-5-[4-(trifluoromethyl)phenyl]-6,7-dihydropyrazolo[1,5-a]pyrazin-4-one]
9.77e-09 M	102%	233.1 °C	Cc1cc(-c2cnn3c2C(=O)N(c2ccc(S(F)(F)(F)(F)F)cc2)C[C@@H]3C)cc(C)n1 [compound 53]
4.47e-06 M	97%	255.5 °C	Cc1cc(-c2cnn3c2C(=O)N(c2ccc(C(F)(F)F)cc2)CC3C(C)O)ccn1 (stereo not drawn) [compound 217]
1.2e-06 M	103%	157.6 °C	C[C@H]1CN(c2ccc(C(F)(F)F)cc2)C(=O)c2c(-c3ccc(C#N)nc3)cnn21 [compound 151]
1.05e-08 M	105%	205.1 °C	Cc1cc(-c2cnn3c2C(=O)N(c2ccc(Cl)c(C(F)(F)F)c2)C[C@@H]3C)cc(C)n1 [compound 54]
1.7e-08 M	102%	134.4 °C	CC[C@H]1CN(c2ccc(C(F)(F)F)cc2)C(=O)c2c(-c3ccnc(C)c3)cnn21 [compound 130]
2.34e-08 M	105%	125.66 °C (dec.)	CNc1cc(-c2cnn3c2C(=O)N(c2ccc(C(F)(F)F)cn2)C[C@@H]3C)ccn1 [compound 210]
3.02e-09 M	108%	62.4 °C	CC(C)c1cc(-c2cnn3c2C(=O)N(c2ccc(Cl)c(Cl)c2)C[C@@H]3C)ccn1 [compound 124]
6.03e-09 M	105%	64.7 °C	Cc1cc(-c2cnn3c2C(=O)N(c2ccc(Cl)c(OC(F)(F)F)c2)C[C@@H]3C)ccn1 [compound 169]
3.8e-09 M	109%	147.6 °C	COc1nc(N2C[C@H](C)n3ncc(-c4ccnc(C)c4)c3C2=O)ccc1C(F)(F)F [compound 207]
8.13e-07 M	104%	101.2 °C	COc1cc(N2C[C@H](C)n3ncc(-c4ccnc(C)c4)c3C2=O)cc(F)c1F [compound 84]
1.51e-07 M	104%	146.6 °C	C[C@H]1CN(c2ccc(C(F)(F)F)cn2)C(=O)c2c(-c3ccnc(F)c3)cnn21 [compound 197]
5.5e-09 M	107%	170.3 °C	C[C@H]1CN(c2ccc(Cl)c(Cl)c2)C(=O)c2c(-c3ccnc(F)c3)cnn21 [compound 164]
